From ChEMBL document CHEMBL3045679, “Microwave-assisted synthesis and pharmacological studies of novel 5-deazaalloxazine derivatives” (2012)
In brackets after ≈: the same amount, converted by molar mass. Activity calls are given as the source filed them. No cut-off for these calls is given here.

Assays:
Candida albicans [1] = test: Antifungal activity against Candida albicans NCIM 3471 at 500 ug/disk after 72 hr by disk diffusion method; type: functional
Aspergillus flavus [2] = test: Antifungal activity against Aspergillus flavus NCIM 535 at 1000 ug/disk after 72 hr by disk diffusion method; type: functional; conditions: for zone of inhibition at 1000 µg/disc: NCIM 535, 72 h, read-out: DIZ
Lipomyces lipofer [3] = test: Antifungal activity against Lipomyces lipofer NCIM 3252 at 1000 ug/disk after 72 hr by disk diffusion method; type: functional; conditions: for zone of inhibition at 1000 µg/disc: NCIM 3252, 72 h, read-out: DIZ
Klebsiella aerogenes [4] = test: Antibacterial activity against Enterobacter aerogenes NCIM 2239 after 24 hr by broth dilution assay; type: functional; conditions: NCIM 2239, 24 h
Bacillus cereus [5] = test: Antibacterial activity against Bacillus cereus NCIM 2155 after 24 hr by broth dilution assay; type: functional; conditions: NCIM 2155, 24 h
Aspergillus niger [6] = test: Antifungal activity against Aspergillus niger NCIM 1196 after 72 hr by broth dilution assay; type: functional; conditions: NCIM 1196, 72 h
Escherichia coli [7] = test: Antibacterial activity against Escherichia coli NCIM 2065 at 1000 ug/disk after 24 hr by disk diffusion method; type: functional; conditions: NCIM 2065, 24 h, read-out: DIZ
Bacillus subtilis [8] = test: Antibacterial activity against Bacillus subtilis NCIM 2063 at 1000 ug/disk after 24 hr by disk diffusion method; type: functional; conditions: NCIM 2063, 24 h, read-out: DIZ
Escherichia coli [9] = test: Antibacterial activity against Escherichia coli NCIM 2065 after 24 hr by broth dilution assay; type: functional; conditions: NCIM 2065, 24 h
Bacillus subtilis [10] = test: Antibacterial activity against Bacillus subtilis NCIM 2063 at 500 ug/disk after 24 hr by disk diffusion method; type: functional; conditions: for zone of inhibition at 500 µg/disc: NCIM 2063, 24 h, read-out: DIZ
Lipomyces lipofer [11] = test: Antifungal activity against Lipomyces lipofer NCIM 3252 at 500 ug/disk after 72 hr by disk diffusion method; type: functional; conditions: for zone of inhibition at 500 µg/disc: NCIM 3252, 72 h, read-out: DIZ
Bacillus cereus [12] = test: Antibacterial activity against Bacillus cereus NCIM 2155 at 500 ug/disk after 24 hr by disk diffusion method; type: functional; conditions: NCIM 2155, 24 h, read-out: DIZ
Streptomyces albus [13] = test: Antibacterial activity against Streptomyces albus NCIM 2178 at 500 ug/disk after 24 hr by disk diffusion method; type: functional, organism-based
Candida albicans [14] = test: Antifungal activity against Candida albicans NCIM 3471 at 1000 ug/disk after 72 hr by disk diffusion method; type: functional; conditions: for zone of inhibition at 1000 µg/disc: NCIM 3471, 72 h, read-out: DIZ
Aspergillus niger [15] = test: Antifungal activity against Aspergillus niger NCIM 1196 at 500 ug/disk after 72 hr by disk diffusion method; type: functional; conditions: for zone of inhibition at 500 µg/disc: NCIM 1196, 72 h, read-out: DIZ
Pseudomonas aeruginosa [16] = test: Antibacterial activity against Pseudomonas aeruginosa NCIM 2200 after 24 hr by broth dilution assay; type: functional; conditions: NCIM 2200, 24 h
Escherichia coli [17] = test: Antibacterial activity against Escherichia coli NCIM 2065 at 500 ug/disk after 24 hr by disk diffusion method; type: functional; conditions: NCIM 2065, 24 h, read-out: DIZ
Klebsiella aerogenes [18] = test: Antibacterial activity against Enterobacter aerogenes NCIM 2239 at 500 ug/disk after 24 hr by disk diffusion method; type: functional; conditions: for zone of inhibition at 500 µg/disc: NCIM 2239, 24 h, read-out: DIZ
Pseudomonas aeruginosa [19] = test: Antibacterial activity against Pseudomonas aeruginosa NCIM 2200 at 500 ug/disk after 24 hr by disk diffusion method; type: functional
Bacillus cereus [20] = test: Antibacterial activity against Bacillus cereus NCIM 2155 at 1000 ug/disk after 24 hr by disk diffusion method; type: functional; conditions: NCIM 2155, 24 h, read-out: DIZ
Lipomyces lipofer [21] = test: Antifungal activity against Lipomyces lipofer NCIM 3252 after 72 hr by broth dilution assay; type: functional; conditions: NCIM 3252, 72 h
Aspergillus flavus [22] = test: Antifungal activity against Aspergillus flavus NCIM 535 at 500 ug/disk after 72 hr by disk diffusion method; type: functional
Bacillus subtilis [23] = test: Antibacterial activity against Bacillus subtilis NCIM 2063 after 24 hr by broth dilution assay; type: functional; conditions: NCIM 2063, 24 h
Pseudomonas aeruginosa [24] = test: Antibacterial activity against Pseudomonas aeruginosa NCIM 2200 at 1000 ug/disk after 24 hr by disk diffusion method; type: functional; conditions: NCIM 2200, 24 h, read-out: DIZ
Aspergillus niger [25] = test: Antifungal activity against Aspergillus niger NCIM 1196 at 1000 ug/disk after 72 hr by disk diffusion method; type: functional; conditions: for zone of inhibition at 1000 µg/disc: NCIM 1196, 72 h, read-out: DIZ
Penicillium chrysogenum [26] = test: Antifungal activity against Penicillium chrysogenum NCIM 707 at 500 ug/disk after 72 hr by disk diffusion method; type: functional
Penicillium chrysogenum [27] = test: Antifungal activity against Penicillium chrysogenum NCIM 707 at 1000 ug/disk after 72 hr by disk diffusion method; type: functional
Klebsiella aerogenes [28] = test: Antibacterial activity against Enterobacter aerogenes NCIM 2239 at 1000 ug/disk after 24 hr by disk diffusion method; type: functional; conditions: NCIM 2239, 24 h, read-out: DIZ
Rhodotorula mucilaginosa [29] = test: Antifungal activity against Rhodotorula mucilaginosa NCIM 3174 at 1000 ug/disk after 72 hr by disk diffusion method; type: functional; conditions: NCIM 3174, 72 h, read-out: DIZ
Rhodotorula mucilaginosa [30] = test: Antifungal activity against Rhodotorula mucilaginosa NCIM 3174 at 500 ug/disk after 72 hr by disk diffusion method; type: functional
Streptomyces albus [31] = test: Antibacterial activity against Streptomyces albus NCIM 2178 at 1000 ug/disk after 24 hr by disk diffusion method; type: functional; conditions: for zone of inhibition at 1000 µg/disc: NCIM 2178, 24 h, read-out: DIZ
Streptomyces albus [32] = test: Antibacterial activity against Streptomyces albus NCIM 2178 after 24 hr by broth dilution assay; type: functional; conditions: NCIM 2178, 24 h

Row | Compound | diameter of the inhibition zone (DIZ) (Candida albicans [1]) | zone of inhibition at 1000 µg/disc (Aspergillus flavus [2]) | zone of inhibition at 1000 µg/disc (Lipomyces lipofer [3]) | MIC (Klebsiella aerogenes [4]) | MIC (Bacillus cereus [5]) | zone of inhibition at 1000 µg/disc (Escherichia coli [7]) | zone of inhibition at 1000 µg/disc (Bacillus subtilis [8]) | MIC (Escherichia coli [9]) | zone of inhibition at 500 µg/disc (Bacillus cereus [12]) | diameter of the inhibition zone (DIZ) (Streptomyces albus [13]) | MIC (Pseudomonas aeruginosa [16]) | zone of inhibition at 500 µg/disc (Escherichia coli [17]) | zone of inhibition at 1000 µg/disc (Bacillus cereus [20]) | diameter of the inhibition zone (DIZ) (Aspergillus flavus [22]) | MIC (Bacillus subtilis [23]) | zone of inhibition at 1000 µg/disc (Pseudomonas aeruginosa [24]) | diameter of the inhibition zone (DIZ) (Penicillium chrysogenum [26]) | zone of inhibition at 1000 µg/disc (Klebsiella aerogenes [28]) | zone of inhibition at 1000 µg/disc (Rhodotorula mucilaginosa [29]) | diameter of the inhibition zone (DIZ) (Rhodotorula mucilaginosa [30]) | further results
1 | Cc1ccc2nc3[nH]c(=S)[nH]c(=O)c3cc2c1 | inactive | 8 mm | 10 mm | 7.8 µg/mL (≈ 32.1 µM) | 62.5 µg/mL (≈ 257 µM) | 11 mm | 12 mm | 31.2 µg/mL (≈ 128 µM) | 8 mm | inactive | 62.5 µg/mL (≈ 257 µM) | 9 mm | 10 mm | inactive | 31.2 µg/mL (≈ 128 µM) | 12 mm | inactive | 13 mm | 9 mm | inactive | MIC (Aspergillus niger [6]): 3.9 µg/mL (≈ 16 µM); diameter of the inhibition zone (DIZ) (Bacillus subtilis [10]): inactive; zone of inhibition at 500 µg/disc (Lipomyces lipofer [11]): 9 mm; diameter of the inhibition zone (DIZ) (Candida albicans [14]): inactive; zone of inhibition at 500 µg/disc (Aspergillus niger [15]): 11 mm; zone of inhibition at 500 µg/disc (Klebsiella aerogenes [18]): 9 mm; diameter of the inhibition zone (DIZ) (Pseudomonas aeruginosa [19]): inactive; MIC (Lipomyces lipofer [21]): 62.5 µg/mL (≈ 257 µM); zone of inhibition at 1000 µg/disc (Aspergillus niger [25]): 14 mm; diameter of the inhibition zone (DIZ) (Penicillium chrysogenum [27]): inactive; zone of inhibition at 1000 µg/disc (Streptomyces albus [31]): 9 mm
2 | O=c1[nH]c(=S)[nH]c2nc3ccc(Cl)cc3cc12 | inactive | 10 mm | 15 mm | 31.2 µg/mL (≈ 118 µM) | 62.5 µg/mL (≈ 237 µM) | 10 mm | 14 mm | 62.5 µg/mL (≈ 237 µM) | 9 mm | inactive | 7.8 µg/mL (≈ 29.6 µM) | 8 mm | 13 mm | inactive | 3.9 µg/mL (≈ 14.8 µM) | 13 mm | inactive | 10 mm | 12 mm | inactive | MIC (Aspergillus niger [6]): 3.9 µg/mL (≈ 14.8 µM); zone of inhibition at 500 µg/disc (Bacillus subtilis [10]): 11 mm; zone of inhibition at 500 µg/disc (Lipomyces lipofer [11]): 9 mm; zone of inhibition at 1000 µg/disc (Candida albicans [14]): 11 mm; zone of inhibition at 500 µg/disc (Aspergillus niger [15]): 11 mm; zone of inhibition at 500 µg/disc (Klebsiella aerogenes [18]): 8 mm; zone of inhibition at 500 µg/disc (Pseudomonas aeruginosa [19]; NCIM 2200, 24 h, read-out: DIZ): 10 mm; MIC (Lipomyces lipofer [21]): 7.8 µg/mL (≈ 29.6 µM); zone of inhibition at 1000 µg/disc (Aspergillus niger [25]): 14 mm; zone of inhibition at 1000 µg/disc (Penicillium chrysogenum [27]; NCIM 707, 72 h, read-out: DIZ): 10 mm; diameter of the inhibition zone (DIZ) (Streptomyces albus [31]): inactive
3 | O=c1[nH]c(=O)c2cc3cc(Cl)ccc3nc2[nH]1 | inactive | – | – | 62.5 µg/mL (≈ 252 µM) | 31.2 µg/mL (≈ 126 µM) | 12 mm | 12 mm | 7.8 µg/mL (≈ 31.5 µM) | 8 mm | inactive | 31.2 µg/mL (≈ 126 µM) | 9 mm | 10 mm | inactive | 31.2 µg/mL (≈ 126 µM) | 12 mm | inactive | 8 mm | 9 mm | inactive | diameter of the inhibition zone (DIZ) (Aspergillus flavus [2]): inactive; diameter of the inhibition zone (DIZ) (Lipomyces lipofer [3]): inactive; zone of inhibition at 500 µg/disc (Bacillus subtilis [10]): 8 mm; diameter of the inhibition zone (DIZ) (Lipomyces lipofer [11]): inactive; zone of inhibition at 1000 µg/disc (Candida albicans [14]): 10 mm; diameter of the inhibition zone (DIZ) (Aspergillus niger [15]): inactive; MIC (Streptomyces albus [32]): 62.5 µg/mL (≈ 252 µM); diameter of the inhibition zone (DIZ) (Klebsiella aerogenes [18]): inactive; diameter of the inhibition zone (DIZ) (Pseudomonas aeruginosa [19]): inactive; diameter of the inhibition zone (DIZ) (Aspergillus niger [25]): inactive; diameter of the inhibition zone (DIZ) (Penicillium chrysogenum [27]): inactive; zone of inhibition at 1000 µg/disc (Streptomyces albus [31]): 10 mm
